ChEMBL document CHEMBL2169865, “Selective class I phosphoinositide 3-kinase inhibitors: optimization of a series of pyridyltriazines leading to the identification of a clinical candidate, AMG 511” (J Med Chem, 2012)

Tests used:
in vitro [1] = details: human, liver microsomes
in vitro [2] = details: rat, liver microsomes
Hepatocyte [3] = details: rat, hepatocytes, 4 h, 3 µM
Hepatocyte [4] = details: rat, hepatocytes, 4 h, 3 µM; remark: listed apart in the source
in vivo [5] = details: Sprague-Dawley, rat, plasma, po, 2 mg/kg
in vivo [6] = details: Sprague-Dawley, rat, po, 2 mg/kg
in vivo [7] = details: Sprague-Dawley, rat, iv, 1 mg/kg
in vivo [8] = details: Sprague-Dawley, rat, iv, 1 mg/kg; remark: listed apart in the source
in vivo [9] = details: Sprague-Dawley, rat, iv, 1 mg/kg; remark: listed apart in the source

SMILES | microsomal CLint at 0.5 h, 1 µM (in vitro [1]) | microsomal CLint at 0.5 h, 1 µM (in vitro [2]) | Drug metabolism (Hepatocyte [3]) | Drug metabolism (Hepatocyte [4]) | AUC (in vivo [5]) | bioavailability (in vivo [6]) | MRT (in vivo [7]) | Vd (in vivo [8]) | clearance (in vivo [9])
Cc1ccc(Nc2ncc(CN3CCN(S(C)(=O)=O)CC3)cc2-c2nc(C)nc(N)n2)cn1 | < 14 µL/min/mg | 22 µL/min/mg |  |  |  |  |  |  | 
COc1ncc(Nc2ncc(CN3CCN(S(C)(=O)=O)CC3)cc2-c2nc(C)nc(N)n2)cc1F | < 14 µL/min/mg | 30 µL/min/mg | Active | Not Active | 0.95 µM·h | 45% | 1.7 h | 3.3 L/kg | 33.3 mL/min/kg
COc1ncc(Nc2ncc([C@@H](C)N3CCN(S(C)(=O)=O)C[C@@H]3C)cc2-c2nc(C)nc(N)n2)cc1F | 67 µL/min/mg | 69 µL/min/mg |  |  | 1.4 µM·h | 49% | 3.1 h | 4 L/kg | 21.7 mL/min/kg
COc1ncc(Nc2ncc(CN3CCN(S(C)(=O)=O)CC3)cc2-c2nc(C)nc(N)n2)cn1 | 14 µL/min/mg | 14 µL/min/mg |  |  |  |  |  |  | 
Cc1nc(N)nc(-c2cc(CN3CCN(S(C)(=O)=O)CC3)cnc2Nc2cncc(F)c2)n1 | < 14 µL/min/mg | 30 µL/min/mg |  |  |  |  |  |  | 
Cc1nc(N)nc(-c2cc(CN3CCN(S(C)(=O)=O)CC3)cnc2Nc2ccc(Cl)nc2)n1 | < 14 µL/min/mg | 24 µL/min/mg |  |  |  |  |  |  | 
COc1ncc(Nc2ncc([C@H](C)N3CCN(S(C)(=O)=O)C[C@H]3C)cc2-c2nc(C)nc(N)n2)cc1F | 54 µL/min/mg | 174 µL/min/mg |  |  |  |  |  |  | 
Cc1nc(N)nc(-c2cc(CN3CCN(S(C)(=O)=O)CC3)cnc2Nc2ccc(C(F)(F)F)nc2)n1 | < 14 µL/min/mg | 22 µL/min/mg |  |  |  |  |  |  | 
COc1ncc(Nc2ncc(CN3CCN(S(C)(=O)=O)C[C@@H]3C)cc2-c2nc(C)nc(N)n2)cc1F | 41 µL/min/mg | 54 µL/min/mg |  |  | 2.3 µM·h | 60% | 3.2 h | 3.2 L/kg | 16.7 mL/min/kg
COc1ncc(Nc2ncc(C(C)(C)N3CCN(S(C)(=O)=O)CC3)cc2-c2nc(C)nc(N)n2)cc1F | 81 µL/min/mg | 58 µL/min/mg |  |  | 1.3 µM·h | 24% | 4.9 h | 3.5 L/kg | 11.7 mL/min/kg

Other lines, results leading:

microsomal CLint at 0.5 h, 1 µM (in vitro [1]) | microsomal CLint at 0.5 h, 1 µM (in vitro [2]) | Drug metabolism (Hepatocyte [3]) | Drug metabolism (Hepatocyte [4]) | AUC (in vivo [5]) | bioavailability (in vivo [6]) | MRT (in vivo [7]) | Vd (in vivo [8]) | clearance (in vivo [9]) | SMILES
64 µL/min/mg | 113 µL/min/mg |  |  |  |  |  |  |  | COc1ncc(Nc2ncc([C@@H](C)N3CCN(S(C)(=O)=O)C[C@H]3C)cc2-c2nc(C)nc(N)n2)cc1F
14 µL/min/mg | 29 µL/min/mg |  |  |  |  |  |  |  | COc1cncc(Nc2ncc(CN3CCN(S(C)(=O)=O)CC3)cc2-c2nc(C)nc(N)n2)c1
25 µL/min/mg | 22 µL/min/mg |  |  |  |  |  |  |  | COc1ncc(Nc2ncc([C@H](N3CCN(S(C)(=O)=O)CC3)C(F)(F)F)cc2-c2nc(C)nc(N)n2)cc1F
29 µL/min/mg | 120 µL/min/mg |  |  |  |  |  |  |  | COc1ncc(Nc2ncc(CN3CCN(S(C)(=O)=O)C[C@H]3C)cc2-c2nc(C)nc(N)n2)cc1F
 | < 14 µL/min/mg |  |  |  |  |  |  |  | Cc1nc(N)nc(-c2cc(CN3CCN(S(C)(=O)=O)CC3)cnc2Nc2ccc(=O)[nH]c2)n1
80 µL/min/mg | 128 µL/min/mg |  |  |  |  |  |  |  | COc1ncc(Nc2ncc([C@H](C)N3CCN(S(C)(=O)=O)C[C@@H]3C)cc2-c2nc(C)nc(N)n2)cc1F
23 µL/min/mg | 17 µL/min/mg |  |  |  |  |  |  |  | COc1ncc(Nc2ncc([C@@H](N3CCN(S(C)(=O)=O)CC3)C(F)(F)F)cc2-c2nc(C)nc(N)n2)cc1F
